{
  "source": "patent US10087199B2",
  "about": "“Super-resolution imaging compositions and methods using same” (Yale University, priority 2014, dated 2018)",
  "key": {"HeLa cells (Golgi label)": {"system": "HeLa cells (Golgi label)", "assay": "Photostability in sequential 3D spinning disk confocal imaging", "assay_type": "cell-based", "conditions": "fixed cells", "description": "The relative photostability of Cer-TCO/SiR-Tz to both BODIPY-Cer and the SiR labeled SNAP-tag Golgi protein Rab6 was compared. The latter is the product of reaction between Rab6-SNAP and a benzyl guanine derivative of SiR (SiR-BG) (Lukinavicius, et al., 2013, Nature Chem. 5:132-139) and thus contains the same near-IR dye as SiR-Tz (FIGS. 5A-5B). HeLa cells were treated with Cer-TCO/SiR-Tz or BODIPY-Cer, while Rab6-SNAP-expressing cells were treated with SiR-BG. The cells were then examined in sequential 3D images using spinning disk confocal microscopy; 3D visualization limited fluorescence fluctuations due to axial sample drift. In each case, 3D “stacks” of 22 optical sections were acquired in series up to 500 times in live or fixed cells (FIGS. 5A-5B). In live cells, even under optimal imaging conditions the BODIPY-Cer fluorescent signal decreased by 50% after fewer than 15 stacks. In striking contrast, the fluorescent signal of cells treated with 2 μM Cer-TCO followed by 2 μM SiR-Tz decreased by only 10% after more than 120 3D stacks had been acquired. Consistent with a lower density of Rab6-SNAP protein in the Golgi, the signal from Rab6-SNAP-SiR decayed at an intermediate rate, decreasing by 50% after about 50 3D stacks. […] After 500 3D stacks the fluorescent signal of Cer-SiR decreased 16% whereas that of Rab6-SNAP-SiR decreased by 84%. […]"}, "[1]": {"system": "HeLa cells that stably expressed GalNAcT2-GFP (Golgi)", "assay": "Two-step Golgi labeling and colocalization with GalNAcT2-GFP by confocal microscopy", "assay_type": "cell-based", "conditions": "2 μM Cer-TCO then 2 μM SiR-Tz, or SiR-Tz only; Golgi area; confocal", "description": "To evaluate whether the Golgi could be selectively imaged using Cer-SiR, HeLa cells that stably expressed a protein fusion composed of GFP and N-acetyl-galactosaminyltransferase 2 (GalNAcT2), a transmembrane protein that localizes to the Golgi with high specificity (Storrie, et al., 1998, J. Cell Biol. 143:1505-1521), were used. These cells were treated with 2 μM Cer-TCO (5 min), maintained at 19.5° C. for 60 min to localize the lipid to the Golgi, treated subsequently with 2 μM SiR-Tz (30 min), and visualized using confocal microscopy (FIG. 2A).\nThe GalNAcT2-GFP and Cer-SiR signals colocalized with a Pearson's coefficient of 0.50±0.02; the corresponding value for the signals from GalNAcT2-GFP and SiR-Tz was 0.08±0.01 (p<0.0001) (FIG. 10), supporting that Cer-TCO effectively localized to the Golgi and reacted efficiently with SiR-Tz.\nStably or transiently transfected HeLa cells were cultured on 35 mm glass bottom dishes (Mattek). To label with Cer-TCO/SiR-Tz, the cells were incubated in PBS containing 1% casein, 0.2% Pluronic F-127 and 2 or 5 μM TCO-Cer for 5 min at 37° C. After washing three times with DMEM ph(−), the cells were incubated for 1 h at 19.5° C. in DMEM ph(−). During this incubation the dish was sealed with parafilm to protect the cells from the used water bath. Subsequently, the cells were washed three times and PBS containing 1% casein and 2 or 1 μM SiR-Tz, respectively, was added to the dish. The dish was sealed with parafilm again and incubated for 30 min at 19.5° C. After washing three times with DMEM ph(−), the cells were observed under a confocal microscope. Fixed samples were prepared similarly with an additional treatment with 4% PFA for 10 min at room temperature after first temperature block. […]\nThe Pearson correlation between the SiR and the GFP signal within cells was determined using the correlation measurement tool in Volocity. […] For cells stably expressing GalNAcT2-GFP and treated with SiR-Tz and Cer-TCO 13 samples (cells) were analyzed and for cells only treated with SiR-Tz 8 samples were analyzed. […]"}},
  "data": [
    {"smiles": "CCCCCCCCCCCCC/C=C/[C@@H](O)[C@H](CO)NC(=O)CCCCCNC(=O)OC1CCCC2=C(c3ccc(CNC(=O)c4ccc(C(=O)[O-])c(C5=C6C=CC(=[N+](C)C)C=C6[Si](C)(C)c6cc(N(C)C)ccc65)c4)cc3)NN=CC2CC1", "note": "(stereo partly drawn) [Cer-SiR, 4-((4-(7-(((6-(((2S,3R,E)-1,3-dihydroxyoctadec-4-en-2-yl)amino)-6-oxohexyl)carbamoyl)oxy)-2,4a,5,6,7,8,9,10-octahydrocycloocta[d]pyridazin-1-yl)benzyl)carbamoyl)-2-(7-(dimethylamino)-3-(dimethyliminio)-5,5-dimethyl-3,5-dihydrodibenzo[b,e]silin-10-yl)benzoate]", "values": [
      {"measurement": "Decrease of fluorescent signal after 500 3D stacks", "setting": "HeLa cells (Golgi label)", "result": 16, "unit": "%"},
      {"measurement": "Pearson's coefficient of colocalization with GalNAcT2-GFP signal", "setting": "[1]", "result": "0.50±0.02"}
    ]}
  ]
}
